For data set [1], the system named is HCT116 cell line. Kind of data set: MTT assay, HCT116. The conditions noted are these: average of three determinations. The class given is cell-based. Here is the method: (§1) Compounds were tested at six concentrations (0.001–100 μM).
(§2) The cells were seeded into a 96-well plate and allowed to attach overnight, after which various concentrations of test compounds or DMSO were added to the culture medium and the cells were incubated for 48 h at 37 °C in a 5% CO2 humidified incubator. Then, 20 μL of 0.5% the fresh MTT solution was added to each well. After incubation for another 4 h, the culture medium was removed and 150 μL of DMSO was added to dissolve the formazan crystals. The absorbance at 540 nm was measured using a microplate reader. The results, expressed as IC50 values, were the average of three determinations and were calculated using nonlinear regression analysis.

In data set [2] the test system is MCF7 cell line. Kind of data set: MTT assay, MCF7. The conditions noted are these: average of three determinations. The class given is cell-based. The procedure:
as §1, §2

The subject of data set [3] is A549 cell line. Kind of data set: MTT assay, A549. The class given is cell-based. The settings on record: average of three determinations. Here is the method:
as §1, §2

Data set [4] deals with MDM2 (Homo sapiens, UniProt Q00987). Kind of data set: fluorescence polarization assay, MDM2 binding.
Method: (§3) The MDM2 and MDMX binding evaluation for the target compounds was carried out using the fluorescence polarization assay.
(§4) Dose-dependent MDM2 and MDMX binding evaluations were carried out using the fluorescence polarization assay.
(§5) A total of 30 nM preincubated (30 min) MDM2 (or MDMX) and 10 nM PMDM-F peptide in reaction buffer (100 μL, potassium phosphate, 100 mM; bovine gamma globulin, 100 mg/mL; sodium azide, 0.02%) were added into a 96-well plate containing the tested compounds at pH 7.5.
For data set [5], the target named is T1, MDMX (Homo sapiens, UniProt O15151).
T1 sequence (O15151 1-490): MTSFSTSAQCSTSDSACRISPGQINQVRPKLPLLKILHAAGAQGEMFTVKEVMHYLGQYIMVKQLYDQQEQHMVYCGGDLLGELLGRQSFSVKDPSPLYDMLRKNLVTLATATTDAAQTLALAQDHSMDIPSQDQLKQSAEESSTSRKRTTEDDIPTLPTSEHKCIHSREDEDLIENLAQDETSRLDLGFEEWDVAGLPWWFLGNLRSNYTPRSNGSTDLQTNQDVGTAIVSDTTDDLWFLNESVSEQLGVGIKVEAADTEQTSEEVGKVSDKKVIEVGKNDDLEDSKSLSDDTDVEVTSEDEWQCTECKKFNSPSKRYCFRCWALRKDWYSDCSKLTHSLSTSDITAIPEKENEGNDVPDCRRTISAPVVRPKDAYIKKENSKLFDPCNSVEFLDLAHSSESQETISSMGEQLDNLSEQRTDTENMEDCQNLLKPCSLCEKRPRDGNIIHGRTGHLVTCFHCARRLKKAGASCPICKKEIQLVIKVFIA
Kind of data set: fluorescence polarization assay, MDMX binding.
Method: as §3, §4, §5

Data set [6] deals with HCT116 cells with wild type p53. Kind of data set: Western blotting of p53, MDM2 and MDMX levels. The class given is cell-based. The conditions noted are these: HCT116 cells, 0, 5, 10 and 20 μM, 48 h, Western blot. Here is the method:
The dual inhibition of the p53-MDM2 and p53-MDMX interactions is expected to activate p53, increasing its level in the cells with wild-type p53. In addition, p53 activation can also result in an increase in the levels of the MDM2 and MDMX proteins. To verify these predictions, Western blotting was used to assess the effects of compound A13 in the HCT 116 cells. The cells were treated with compound A13 for 48 h. Subsequently, the cells were lysed and protein extracts were analyzed for the levels of p53, MDM2, and MDMX.
The HCT116 cells with wild type p53 were treated with compound A13 (0, 5, 10, and 20 μM) for 48 h. The cells were harvested and lysed with RIPA buffer (Sigma, St. Louis, […], USA) supplemented with a protease inhibitor cocktail (Sigma), followed by centrifugation at 12,000× g for 10 min. The supernatants were heated to 100 °C with loading buffer and the total protein concentrations were determined using a Bio-Rad protein assay. Protein samples were subjected to SDS-PAGE and transferred to a PVDF membrane. The membrane was blocked with 5% non-fat milk, and then incubated with the corresponding primary antibody (MDM2, MDMX, p53, and GAPDH) at 4 °C overnight. After binding with an appropriate secondary antibody conjugated with peroxidase, proteins were visualized using the ECL chemiluminescence system. GAPDH was used as a loading control.

The mark [7] stands for this setting: read-out: Ki (μM) ± SD MDM2, fluorescence polarization, PMDM-F peptide, pH 7.5.
[8] abbreviates: read-out: Ki (μM) ± SD MDMX, fluorescence polarization, PMDM-F peptide, pH 7.5.

Where two headings read alike, the source gives them in different places.

Here are results for 14 compounds from article PMC9230548, “Synthesis and Biological Evaluation of Novel Synthetic Indolone Derivatives as Anti-Tumor Agents Targeting p53-MDM2 and p53-MDMX” (Molecules, 2022).

MDM2, sequence (Q00987 whole entry): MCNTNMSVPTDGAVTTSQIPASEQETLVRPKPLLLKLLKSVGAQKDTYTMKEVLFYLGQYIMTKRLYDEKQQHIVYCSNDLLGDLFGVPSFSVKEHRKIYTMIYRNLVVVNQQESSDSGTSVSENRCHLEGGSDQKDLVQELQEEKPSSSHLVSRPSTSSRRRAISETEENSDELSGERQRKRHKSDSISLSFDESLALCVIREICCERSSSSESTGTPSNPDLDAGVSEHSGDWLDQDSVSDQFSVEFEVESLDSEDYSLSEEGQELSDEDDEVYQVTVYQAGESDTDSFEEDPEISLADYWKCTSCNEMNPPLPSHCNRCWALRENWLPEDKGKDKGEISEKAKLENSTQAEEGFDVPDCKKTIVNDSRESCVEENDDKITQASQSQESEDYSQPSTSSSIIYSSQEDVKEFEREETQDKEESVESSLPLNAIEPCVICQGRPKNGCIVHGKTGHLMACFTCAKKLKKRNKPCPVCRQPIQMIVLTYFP

On to `O=C1/C(=C/c2cccc(Cl)c2)c2ccccc2N1S(=O)(=O)c1cccc(C(F)(F)F)c1` [Compound A21, (E)-3-(3-chlorobenzylidene)-1-((3-(trifluoromethyl)phenyl)sulfonyl)indolin-2-one], for which the IC50 in data set [1] (Homo sapiens, HCT-116, 48 h) stood at 8.91 ± 1.35 µM; in data set [2] (Homo sapiens, MCF7, 48 h), 15.7 ± 2.04 µM; in data set [3] (Homo sapiens, A549, 48 h), 13.5 ± 2.73 µM. Also, the Ki stood at 0.092 ± 0.007 µM in data set [4] and 19.3 ± 2.69 µM in data set [5].

Compound `O=C1/C(=C/c2cccc(Cl)c2)c2cc(Cl)ccc2N1S(=O)(=O)c1cccc(Cl)c1` [Compound A29, (E)-5-chloro-3-(3-chlorobenzylidene)-1-((3-chlorophenyl)sulfonyl)indolin-2-one] came in with a melting point of 177.8 to 178.7 °C. Further, in data set [1] (Homo sapiens, HCT-116, 48 h), inhibition was half-maximal at 17 ± 2.37 µM (IC50). This compound also showed a half-inhibitory concentration (IC50) in data set [2] (Homo sapiens, MCF7, 48 h) of 27.4 ± 3.37 µM. Moreover, in data set [3] (Homo sapiens, A549, 48 h), half-maximal inhibition (IC50) was put at 26.4 ± 4.05 µM. Also, the Ki in data set [4] (setting [7]) was determined as 0.28 ± 0.04 µM. Besides, the inhibition constant Ki in data set [5] (setting [8]) turned out to be 32.2 ± 3.24 µM.

With `O=C1/C(=C/c2cccc(Cl)c2)c2ccccc2N1S(=O)(=O)c1ccccc1Cl` [Compound A12, (E)-3-(3-chlorobenzylidene)-1-((2-chlorophenyl)sulfonyl)indolin-2-one], the melting point was in the range of 125.1 to 126.3 °C. The compound further registered a concentration for half-maximal inhibition (IC50) in data set [1] (Homo sapiens, HCT-116, 48 h) of 15.4 ± 4.61 µM. This compound also yielded an IC50 in data set [2] (Homo sapiens, MCF7, 48 h) of 24.7 ± 2.53 µM. Also, half-maximal inhibition in data set [3] (Homo sapiens, A549, 48 h) (IC50) required 17.8 ± 2.19 µM. This compound returned an inhibition constant (Ki) in data set [4] of 0.19 ± 0.05 µM. This compound also registered an inhibition constant Ki in data set [5] of 20.8 ± 2.01 µM.

For the compound `O=C1/C(=C/c2cccc(Cl)c2)c2ccccc2N1S(=O)(=O)c1ccc(Br)cc1` [Compound A17], the IC50 in data set [1] (48 h) is 25.5 ± 3.26 µM; in data set [2] (48 h), 37.7 ± 3.65 µM; in data set [3] (48 h) it was 34.2 ± 3.39 µM. Further, the inhibition constant Ki in data set [4] (setting [7]) worked out at 0.49 ± 0.15 µM; in data set [5] (setting [8]), 43.2 ± 4.95 µM.

As for `O=C1/C(=C/c2cccc(Cl)c2)c2ccccc2N1S(=O)(=O)c1ccc(Cl)cc1` [Compound A14, (E)-3-(3-chlorobenzylidene)-1-((4-chlorophenyl)sulfonyl)indolin-2-one], the melting point lay within 137.5 to 139.6 °C. The half-maximal inhibitory concentration (IC50) in data set [1] (Homo sapiens, HCT-116, 48 h) came out at 15.2 ± 3.14 µM. For the same compound, the IC50 in data set [2] (Homo sapiens, MCF7, 48 h) stood at 20.2 ± 2.86 µM. The same compound displayed a half-inhibitory concentration (IC50) in data set [3] (Homo sapiens, A549, 48 h) of 20.3 ± 2.49 µM. Further, the Ki in data set [4] (setting [7]) was determined as 0.082 ± 0.021 µM. In addition, in data set [5] (setting [8]), the Ki was determined as 18.2 ± 1.39 µM.

For `O=C1/C(=C/c2cccc(Cl)c2)c2ccccc2N1S(=O)(=O)c1cccc(Cl)c1` [Compound A13, (E)-3-(3-chlorobenzylidene)-1-((3-chlorophenyl)sulfonyl)indolin-2-one], the half-maximal inhibitory concentration (IC50) was 6.17 ± 0.93 µM in data set [1] (Homo sapiens, HCT-116, 48 h); 11.2 ± 1.95 µM in data set [2] (Homo sapiens, MCF7, 48 h); 12.5 ± 2.01 µM in data set [3] (Homo sapiens, A549, 48 h). The “expression of MDM2” value in data set [6] is reported as “induced in a dose-dependent manner”. The “expression of MDMX” value in data set [6] was “induced in a dose-dependent manner”. In data set [6], the “level of p53 proteins” value is “dose-dependent increase”. Further, the inhibitory constant (Ki) in data set [4] was determined as 0.031 ± 0.007 µM; in data set [5], 7.24 ± 0.78 µM.

Regarding `O=C1/C(=C/c2cccc(Cl)c2)c2ccccc2N1S(=O)(=O)c1ccccc1F` [Compound A18, (E)-3-(3-chlorobenzylidene)-1-((2-fluorophenyl)sulfonyl)indolin-2-one], the concentration for half-maximal inhibition (IC50) in data set [1] (Homo sapiens, HCT-116, 48 h) stood at 17.9 ± 2.11 µM; in data set [2] (Homo sapiens, MCF7, 48 h), 24.7 ± 3.63 µM; in data set [3] (Homo sapiens, A549, 48 h), 22.6 ± 2.93 µM. The Ki came to 0.17 ± 0.03 µM in data set [4] and 17.7 ± 2.16 µM in data set [5].

`O=C1/C(=C/c2ccc(Cl)cc2)c2ccccc2N1S(=O)(=O)c1cccc(Cl)c1` [Compound A27, (E)-3-(4-chlorobenzylidene)-1-((3-chlorophenyl)sulfonyl)indolin-2-one] came in with a melting point of 184.8 to 185.6 °C. For the same compound, the IC50 in data set [1] (Homo sapiens, HCT-116, 48 h) was found to be 17.5 ± 1.53 µM. In data set [2] (Homo sapiens, MCF7, 48 h), this compound registered an IC50 of 27.6 ± 3.81 µM. This compound also had a half-maximal inhibitory concentration (IC50) in data set [3] (Homo sapiens, A549, 48 h) of 20.4 ± 1.98 µM. Besides, the inhibition constant (Ki) in data set [4] (setting [7]) worked out at 0.31 ± 0.03 µM. Moreover, the Ki in data set [5] (setting [8]) worked out at 17.3 ± 1.91 µM.

On to `O=C1/C(=C/c2ccccc2Cl)c2ccccc2N1S(=O)(=O)c1cccc(Cl)c1` [Compound A6, (E)-3-(2-chlorobenzylidene)-1-((3-chlorophenyl)sulfonyl)indolin-2-one], for which the IC50 is 10.7 ± 1.47 µM in data set [1] (Homo sapiens, HCT-116, 48 h); 25.5 ± 3.61 µM in data set [2] (Homo sapiens, MCF7, 48 h); 18.7 ± 2.49 µM in data set [3] (Homo sapiens, A549, 48 h). For the same compound, the Ki turned out to be 0.92 ± 0.11 µM in data set [4] and 17.4 ± 2.78 µM in data set [5].

`O=C1/C(=C/c2cccc(Cl)c2)c2ccccc2N1S(=O)(=O)c1cccc(F)c1` [Compound A19, (E)-3-(3-chlorobenzylidene)-1-((3-fluorophenyl)sulfonyl)indolin-2-one]: the 50% inhibitory concentration (IC50) in data set [1] (Homo sapiens, HCT-116, 48 h) turned out to be 10.2 ± 1.37 µM; in data set [2] (Homo sapiens, MCF7, 48 h), 21 ± 2.58 µM; in data set [3] (Homo sapiens, A549, 48 h), 16.3 ± 1.82 µM. For the same compound, the results for the Ki in data set [4] and in data set [5] were 0.076 ± 0.005 µM and 16.9 ± 1.74 µM, respectively.

`O=C1/C(=C/c2cccc(Cl)c2)c2ccccc2N1S(=O)(=O)c1ccc(F)cc1` [Compound A20, (E)-3-(3-chlorobenzylidene)-1-((4-fluorophenyl)sulfonyl)indolin-2-one] displayed a melting point of 141.7 to 143.1 °C. In addition, the midpoint of inhibition in data set [1] (Homo sapiens, HCT-116, 48 h), the IC50, lay at 16.3 ± 2.73 µM. Moreover, in data set [2] (Homo sapiens, MCF7, 48 h), the half-maximal inhibitory concentration (IC50) amounted to 27.2 ± 2.83 µM. The midpoint of inhibition in data set [3] (Homo sapiens, A549, 48 h), the IC50, lay at 22.2 ± 2.13 µM. The compound also yielded an inhibitory constant (Ki) in data set [4] of 0.23 ± 0.02 µM. This compound also displayed an inhibition constant Ki in data set [5] of 29.2 ± 3.51 µM.

In the case of `COc1ccc(C2=N[C@@H](c3ccc(Cl)cc3)[C@@H](c3ccc(Cl)cc3)N2C(=O)N2CCNC(=O)C2)c(OC(C)C)c1` [Nutlin-3a, reference compound], the concentration for half-maximal inhibition (IC50) was 18.1 ± 2.17 µM in data set [1] (48 h), 32.2 ± 1.49 µM in data set [2] (48 h) and 21.7 ± 2.04 µM in data set [3] (48 h).

For the compound `O=C1/C(=C/c2cccc(Cl)c2)c2ccccc2N1S(=O)(=O)c1cccc(Br)c1` [Compound A16], the IC50 in data set [1] (48 h) was found to be 21.7 ± 2.59 µM; in data set [2] (48 h), 26.5 ± 3.4 µM; in data set [3] (48 h), 25.4 ± 3.62 µM. For the same compound, the Ki in data set [4] (setting [7]) worked out at 0.079 ± 0.005 µM; in data set [5] (setting [8]), 16.2 ± 1.94 µM.

As to `O=C1/C(=C/c2cccc(Cl)c2)c2ccccc2N1S(=O)(=O)c1ccccc1Br` [Compound A15], the 50% inhibitory concentration (IC50) was found to be 23.8 ± 2.69 µM in data set [1] (48 h), 31.1 ± 3.55 µM in data set [2] (48 h) and 29.1 ± 3.31 µM in data set [3] (48 h). Moreover, the inhibition constant (Ki) in data set [4] (setting [7]) came out at 0.34 ± 0.12 µM; in data set [5] (setting [8]) it was 24.4 ± 2.57 µM.
